According to ChEMBL document CHEMBL1201862, “PubChem BioAssay data set” (2004):
Calls of active or inactive are those of the source.

Columns and labels:
[1] = target: T1, Type-1 angiotensin II receptor (Homo sapiens, UniProt P30556); assay: AT1 receptor agonists, dose response, selectivity assay for APJ receptor agonist project, cell-based, uHTS hits (AID 488865); format: functional;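 further: beta-arrestin recruitment to AT1 measured by enzyme fragment complementation luminescence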
T1 sequence (P30556 whole entry): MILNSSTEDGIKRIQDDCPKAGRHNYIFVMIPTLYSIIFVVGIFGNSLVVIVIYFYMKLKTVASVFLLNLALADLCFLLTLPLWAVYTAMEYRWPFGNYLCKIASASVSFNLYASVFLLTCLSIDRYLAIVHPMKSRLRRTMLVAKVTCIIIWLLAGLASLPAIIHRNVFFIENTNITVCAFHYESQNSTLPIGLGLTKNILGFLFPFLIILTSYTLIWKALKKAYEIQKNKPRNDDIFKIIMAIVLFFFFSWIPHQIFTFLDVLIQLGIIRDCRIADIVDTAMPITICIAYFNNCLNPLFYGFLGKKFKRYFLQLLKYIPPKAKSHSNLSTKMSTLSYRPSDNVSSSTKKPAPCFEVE

[2] = target: Dual specificity protein phosphatase 3 (Homo sapiens, UniProt P51452); assay: SAR VHR1 Fluorescent Assay for In Vitro dose response studies Set 2. [Related pubchem assays (depositor defined):AID1654, AID1661, AID1878]; format: functional
Chain of Dual specificity protein phosphatase 3 (P51452 whole entry): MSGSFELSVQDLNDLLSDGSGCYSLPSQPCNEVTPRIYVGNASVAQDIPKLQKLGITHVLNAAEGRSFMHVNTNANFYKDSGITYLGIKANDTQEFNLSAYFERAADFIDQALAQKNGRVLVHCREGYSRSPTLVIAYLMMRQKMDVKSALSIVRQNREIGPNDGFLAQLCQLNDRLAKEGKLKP

[3] = target: T2, Tyrosine-protein phosphatase non-receptor type 7 (Homo sapiens, UniProt P35236); assay: SAR analysis of chemical inhibitors of HePTP using a Fluorescent assay - Set 2. [Related pubchem assays (depositor defined):AID1059, AID1077, AID1661, AID2085, AID521]; format: functional
T2 sequence (P35236 whole entry): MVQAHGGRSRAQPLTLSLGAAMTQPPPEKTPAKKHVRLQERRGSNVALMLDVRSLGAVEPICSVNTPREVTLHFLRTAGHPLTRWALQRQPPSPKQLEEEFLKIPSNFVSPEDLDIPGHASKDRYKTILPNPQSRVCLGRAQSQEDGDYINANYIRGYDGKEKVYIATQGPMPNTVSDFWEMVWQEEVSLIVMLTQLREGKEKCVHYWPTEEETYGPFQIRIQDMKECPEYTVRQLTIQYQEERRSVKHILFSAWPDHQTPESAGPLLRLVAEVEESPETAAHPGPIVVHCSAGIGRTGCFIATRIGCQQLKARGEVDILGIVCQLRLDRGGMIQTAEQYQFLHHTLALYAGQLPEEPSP

[4] = target: T3, Short transient receptor potential channel 4 (Mus musculus, UniProt Q9QUQ5); assay: TRPC4 positive allosteric modulators, dose response, cell-based, HEK293 TRPC4/mu-opioid, Fluo-4 calcium, EC20 DAMGO (AID 434941); format: functional
T3 sequence (Q9QUQ5 whole entry): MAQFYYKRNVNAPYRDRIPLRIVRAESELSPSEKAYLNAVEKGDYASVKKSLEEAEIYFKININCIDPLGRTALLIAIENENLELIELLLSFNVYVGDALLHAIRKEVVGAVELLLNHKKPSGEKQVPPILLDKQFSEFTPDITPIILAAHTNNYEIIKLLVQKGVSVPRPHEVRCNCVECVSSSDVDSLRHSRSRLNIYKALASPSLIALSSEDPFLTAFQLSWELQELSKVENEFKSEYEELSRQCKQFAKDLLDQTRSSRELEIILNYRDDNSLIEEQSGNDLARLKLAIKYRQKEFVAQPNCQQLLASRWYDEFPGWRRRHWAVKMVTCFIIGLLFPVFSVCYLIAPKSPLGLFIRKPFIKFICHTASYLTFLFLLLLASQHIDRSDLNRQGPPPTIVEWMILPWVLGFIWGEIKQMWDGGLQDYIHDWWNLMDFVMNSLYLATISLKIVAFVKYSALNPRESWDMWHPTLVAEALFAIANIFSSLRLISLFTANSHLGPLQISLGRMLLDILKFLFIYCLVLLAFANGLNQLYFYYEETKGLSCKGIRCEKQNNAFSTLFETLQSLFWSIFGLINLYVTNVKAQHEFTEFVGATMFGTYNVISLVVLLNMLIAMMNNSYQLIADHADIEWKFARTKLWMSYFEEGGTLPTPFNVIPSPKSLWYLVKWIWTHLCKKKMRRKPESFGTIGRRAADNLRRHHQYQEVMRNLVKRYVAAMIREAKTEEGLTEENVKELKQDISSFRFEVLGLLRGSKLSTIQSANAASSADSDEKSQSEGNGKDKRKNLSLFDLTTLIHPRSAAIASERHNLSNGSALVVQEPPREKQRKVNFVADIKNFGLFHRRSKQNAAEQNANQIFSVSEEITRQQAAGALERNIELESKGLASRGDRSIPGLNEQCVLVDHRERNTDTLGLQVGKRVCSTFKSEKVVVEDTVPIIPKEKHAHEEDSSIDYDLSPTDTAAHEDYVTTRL

[5] = target: T3, Short transient receptor potential channel 4; assay: mouse TRPC4 channel activators, dose response, cell-based, HEK293 TRPC4/mu-opioid, Fluo-4 calcium (AID 434937); format: functional
Protein skinhead-1 = target: T4, Protein skinhead-1 (Caenorhabditis elegans, UniProt P34707); format: functional
T4 sequence (P34707 whole entry): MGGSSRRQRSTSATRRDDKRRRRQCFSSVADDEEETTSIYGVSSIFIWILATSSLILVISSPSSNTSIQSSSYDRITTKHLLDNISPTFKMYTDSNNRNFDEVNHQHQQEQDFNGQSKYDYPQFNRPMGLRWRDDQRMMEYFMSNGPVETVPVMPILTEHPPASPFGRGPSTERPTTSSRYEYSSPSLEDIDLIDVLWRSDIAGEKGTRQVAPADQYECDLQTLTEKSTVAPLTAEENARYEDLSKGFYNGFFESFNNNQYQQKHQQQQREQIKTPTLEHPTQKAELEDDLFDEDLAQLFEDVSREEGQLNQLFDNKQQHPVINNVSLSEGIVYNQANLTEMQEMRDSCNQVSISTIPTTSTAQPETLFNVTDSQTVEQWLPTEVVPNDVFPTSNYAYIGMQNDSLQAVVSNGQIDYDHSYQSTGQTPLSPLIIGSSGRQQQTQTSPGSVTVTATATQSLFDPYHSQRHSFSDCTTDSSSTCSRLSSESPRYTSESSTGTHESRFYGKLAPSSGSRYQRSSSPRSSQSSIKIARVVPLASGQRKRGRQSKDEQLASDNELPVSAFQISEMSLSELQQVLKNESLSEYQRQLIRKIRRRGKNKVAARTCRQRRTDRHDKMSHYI

[6] = test system: Streptococcus sp. 'group A'; assay: growth inhibition of control SK(-) GAS strain, dose response, counter-screen for streptokinase expression inhibitor project, luminescence, kanamycin, BacTiterGlo, confirmation (AID 1900); format: functional, organism-based
Streptokinase A = target: T5, Streptokinase A (Streptococcus pyogenes serotype M1, UniProt P10520); assay: S. pyogenes streptokinase expression inhibitors, potency, dose response, plasminogen activation absorbance, OD405 (AID 1914); format: functional, Streptococcus pyogenes M1 GAS;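 further: secreted streptokinase activity via plasminogen activation per viability signal from cell pellet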
T5 sequence (P10520 whole entry): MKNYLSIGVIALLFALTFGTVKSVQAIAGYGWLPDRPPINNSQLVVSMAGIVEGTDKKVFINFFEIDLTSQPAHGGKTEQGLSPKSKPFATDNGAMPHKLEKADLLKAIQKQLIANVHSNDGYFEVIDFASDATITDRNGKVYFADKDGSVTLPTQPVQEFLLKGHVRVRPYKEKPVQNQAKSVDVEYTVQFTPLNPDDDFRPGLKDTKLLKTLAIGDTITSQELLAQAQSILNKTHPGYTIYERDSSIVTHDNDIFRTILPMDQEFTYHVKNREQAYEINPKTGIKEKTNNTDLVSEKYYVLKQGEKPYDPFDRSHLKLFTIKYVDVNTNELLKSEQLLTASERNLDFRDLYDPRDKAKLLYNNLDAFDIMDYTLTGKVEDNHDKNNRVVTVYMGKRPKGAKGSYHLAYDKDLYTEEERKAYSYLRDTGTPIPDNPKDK

Streptococcus = assay: Group A Streptococcus viability loss, dose response, counter-screen for streptokinase expression inhibitor project, luminescence, BacTiterGlo (AID 1915); format: functional, organism-based;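 further: potency for reduction of bacterial viability or growth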
Coagulation factor XII = target: T6, Coagulation factor XII (Homo sapiens, UniProt P00748); assay: FXIIa inhibitor potency, concentration-response, biochemical (AID 716); format: functional
T6 sequence (P00748 whole entry): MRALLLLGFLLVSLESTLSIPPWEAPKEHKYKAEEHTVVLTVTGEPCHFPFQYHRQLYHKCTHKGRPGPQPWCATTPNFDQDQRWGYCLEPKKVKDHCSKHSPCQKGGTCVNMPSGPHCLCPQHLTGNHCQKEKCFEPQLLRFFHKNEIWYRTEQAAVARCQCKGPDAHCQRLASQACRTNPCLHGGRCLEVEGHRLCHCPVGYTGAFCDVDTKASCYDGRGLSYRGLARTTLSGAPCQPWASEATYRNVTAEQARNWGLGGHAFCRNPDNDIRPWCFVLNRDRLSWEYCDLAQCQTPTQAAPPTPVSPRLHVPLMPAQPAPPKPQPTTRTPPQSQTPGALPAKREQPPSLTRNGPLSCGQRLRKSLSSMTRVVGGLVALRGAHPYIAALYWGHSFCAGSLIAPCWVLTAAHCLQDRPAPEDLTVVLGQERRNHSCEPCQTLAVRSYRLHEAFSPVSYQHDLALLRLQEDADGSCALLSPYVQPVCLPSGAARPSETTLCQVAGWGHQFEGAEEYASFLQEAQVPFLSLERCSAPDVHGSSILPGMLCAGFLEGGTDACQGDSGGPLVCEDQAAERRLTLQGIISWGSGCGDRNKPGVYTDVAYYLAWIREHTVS

[7] = target: T7, Kappa-type opioid receptor (Homo sapiens, UniProt P41145); assay: SAR analysis of Antagonists of the Kappa Opioid Receptor (KOR) using an Image-Based Assay - Set 3. [Related pubchem assays (depositor defined):AID1777, AID1785]; format: functional
T7 sequence (P41145 whole entry): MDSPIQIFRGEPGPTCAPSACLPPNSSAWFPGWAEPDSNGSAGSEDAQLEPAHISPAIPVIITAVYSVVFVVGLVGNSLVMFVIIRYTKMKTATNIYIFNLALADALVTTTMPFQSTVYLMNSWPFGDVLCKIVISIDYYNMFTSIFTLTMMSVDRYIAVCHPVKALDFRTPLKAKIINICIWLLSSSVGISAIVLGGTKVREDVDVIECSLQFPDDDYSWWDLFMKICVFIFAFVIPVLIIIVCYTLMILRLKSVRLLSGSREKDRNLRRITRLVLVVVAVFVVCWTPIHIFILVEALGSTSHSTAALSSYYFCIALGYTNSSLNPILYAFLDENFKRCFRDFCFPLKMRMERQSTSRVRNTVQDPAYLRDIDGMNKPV

[8] = target: T7, Kappa-type opioid receptor; assay: SAR analysis of small molecule antagonists of the kappa opioid receptor via a luminescent beta-arrestin assay - Set 3. [Related pubchem assays (depositor defined):AID1777, AID1778, AID1785, AID1786, AID1966, AID2133, AID2136, AID2285, AID2495]; format: functional
[9] = target: Delta-type opioid receptor (Homo sapiens, UniProt P41143); assay: SAR Analysis of Antagonists of the DOR Receptor using an Image-Based Assay - Set 3. [Related pubchem assays (depositor defined):AID1777, AID1785]; format: functional;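 further: U2OS cells expressing DOR1 and beta-arrestin GFP stimulated with 100 nM SNC80; imaging of GFP-tagged beta-arrestin moving into spots after receptor activation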
Chain of Delta-type opioid receptor (P41143 whole entry): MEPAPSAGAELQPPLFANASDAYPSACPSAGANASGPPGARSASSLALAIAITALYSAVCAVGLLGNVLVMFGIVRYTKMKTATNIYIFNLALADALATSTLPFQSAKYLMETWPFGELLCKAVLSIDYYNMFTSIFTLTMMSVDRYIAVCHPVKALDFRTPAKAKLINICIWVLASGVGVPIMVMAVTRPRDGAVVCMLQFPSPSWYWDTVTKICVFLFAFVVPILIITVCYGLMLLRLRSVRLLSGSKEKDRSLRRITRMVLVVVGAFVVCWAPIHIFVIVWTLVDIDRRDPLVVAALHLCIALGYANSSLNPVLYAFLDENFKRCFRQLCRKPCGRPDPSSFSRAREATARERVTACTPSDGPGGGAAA

Mu-type opioid receptor = Mu-type opioid receptor (Homo sapiens, UniProt P35372); assay: SAR Analysis of Antagonists of the MOR Receptor using an Image-Based Assay - Set 3. [Related pubchem assays (depositor defined):AID1777, AID1785, AID1786, AID1966, AID2133, AID2136, AID2284, AID2285, AID2420]; format: functional
Chain of Mu-type opioid receptor (P35372 whole entry): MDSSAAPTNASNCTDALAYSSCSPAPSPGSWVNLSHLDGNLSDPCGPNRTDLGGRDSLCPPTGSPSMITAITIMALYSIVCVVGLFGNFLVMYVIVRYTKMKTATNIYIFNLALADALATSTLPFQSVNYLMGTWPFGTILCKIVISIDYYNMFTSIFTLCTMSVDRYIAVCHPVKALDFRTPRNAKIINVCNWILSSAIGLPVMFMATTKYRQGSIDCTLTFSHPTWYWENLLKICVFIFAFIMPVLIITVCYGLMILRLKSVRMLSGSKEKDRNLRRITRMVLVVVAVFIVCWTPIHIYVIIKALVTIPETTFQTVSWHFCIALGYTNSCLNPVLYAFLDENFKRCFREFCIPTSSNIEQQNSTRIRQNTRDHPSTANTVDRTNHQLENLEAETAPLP

T-cell = assay: inhibitors of CD8+ T cell–vesicle binding, dose response, mouse 2C CD8+ T cells, flow cytometry (AID 485284); format: functional
[10] = target: DNA dC->dU-editing enzyme APOBEC-3A (Homo sapiens, UniProt P31941); assay: Dose Response confirmation of small molecule APOBEC3A DNA Deaminase Inhibitors via a fluorescence-based single-stranded DNA deaminase assay. [Related pubchem assays (depositor defined):AID493011, AID493024]; format: functional
Chain of DNA dC->dU-editing enzyme APOBEC-3A (P31941 whole entry): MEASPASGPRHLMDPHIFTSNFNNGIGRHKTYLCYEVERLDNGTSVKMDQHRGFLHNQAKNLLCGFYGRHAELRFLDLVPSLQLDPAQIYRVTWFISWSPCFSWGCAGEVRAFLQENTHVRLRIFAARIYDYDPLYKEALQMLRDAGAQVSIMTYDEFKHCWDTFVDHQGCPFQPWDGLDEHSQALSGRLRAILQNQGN

BJ [11] = assay: cytotoxicity toward BJ-TERT-LT-ST fibroblasts, dose response, cell-based, RAS-independent, luminescence (AID 1935); format: functional; conditions: Homo sapiens;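 further: BJ fibroblasts immortalized with TERT plus LT and ST oncogenes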
[12] = target: FAD-linked sulfhydryl oxidase ALR (Homo sapiens, UniProt P55789); assay: inhibitors of human ALR sulfhydryl oxidase, dose response, biochemical, H2O2 detection, luminescence, cherry-pick (AID 493248)
Chain of FAD-linked sulfhydryl oxidase ALR (P55789 whole entry): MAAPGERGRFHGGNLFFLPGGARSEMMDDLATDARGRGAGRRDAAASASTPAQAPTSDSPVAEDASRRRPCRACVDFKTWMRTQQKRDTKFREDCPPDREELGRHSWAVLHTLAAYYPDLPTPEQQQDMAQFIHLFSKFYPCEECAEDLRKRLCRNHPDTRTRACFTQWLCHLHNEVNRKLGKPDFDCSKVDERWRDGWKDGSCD

[13] = cytotoxicity in HEK-293T cells, dose response, cytotoxicity control for TCR NF-kB inhibitor project, luminescence, T-cell screen hits (AID 489026); format: functional, cell-based;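 further: cells exposed to compound about 14 hours before the viability readout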
BJ [14] = assay: cytotoxicity toward BJ-TERT fibroblasts, dose response, cell-based, RAS-independent, luminescence (AID 1933); format: functional; conditions: Homo sapiens
[15] = target: DNA dC->dU-editing enzyme APOBEC-3G (Homo sapiens, UniProt Q9HC16); format: functional;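 further: Dose-response counterscreen measuring inhibition of APOBEC3G DNA deaminase activity, run while confirming APOBEC3A inhibitors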
Chain of DNA dC->dU-editing enzyme APOBEC-3G (Q9HC16 whole entry): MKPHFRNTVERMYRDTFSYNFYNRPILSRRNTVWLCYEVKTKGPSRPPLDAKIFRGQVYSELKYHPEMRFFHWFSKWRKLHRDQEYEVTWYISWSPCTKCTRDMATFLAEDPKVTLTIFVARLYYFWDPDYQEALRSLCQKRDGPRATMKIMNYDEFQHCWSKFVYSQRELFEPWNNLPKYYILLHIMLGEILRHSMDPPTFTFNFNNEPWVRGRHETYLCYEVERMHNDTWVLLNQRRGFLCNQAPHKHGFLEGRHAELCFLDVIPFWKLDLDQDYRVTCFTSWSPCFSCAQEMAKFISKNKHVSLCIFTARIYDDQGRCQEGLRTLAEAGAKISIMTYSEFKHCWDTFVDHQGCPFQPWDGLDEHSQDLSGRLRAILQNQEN

BJ [16] = assay: cells; format: functional, cell-based; conditions: Homo sapiens
[17] = microbe, parasite or virus in culture; format: functional; conditions: Mycobacterium tuberculosis
[18] = cytotoxicity toward DRD oncogenic fibroblasts, dose response, cell-based, non-viral oncogenic, luminescence (AID 1934); format: functional; conditions: Homo sapiens

CC1(OC(=O)C2CCCC2)C(=O)C=C2C=C(c3ccsc3)N(C3CCCC3)C=C2C1=O (stereo not given)
EC50 [1]: > 100 µM (inactive)

C=CCn1c(N)c(C(=O)N2CCN(C)CC2)sc1=S
IC50 [2]: 61.2 µM (active)
IC50 [3]: 77.7 µM (active)

COc1cc(/C=C2/SC(=S)N(Cc3ccccc3)C2=O)cc(Cl)c1O
EC50 [4]: 1.5 µM (active)
EC50 [5]: 5.31 µM (active)
IC50 (Protein skinhead-1): > 100 µM (inactive)
EC50 [6]: 5.2 µM (active)
EC50 (Streptokinase A): > 150 µM (not active)
EC50 (Streptococcus): 5.86 µM (active)

CCC(c1nnnn1Cc1ccc2c(c1)OCO2)N1CCN(c2ccc(F)cc2)CC1 (stereo not given)
IC50 (Protein skinhead-1): > 100 µM (inactive)
IC50 (Coagulation factor XII): > 50 µM (inactive)

Cc1ccc(S(=O)(=O)NCc2ccc(C(=O)NCCN(Cc3ccccc3)Cc3ccccc3)cc2)cc1
IC50 [7]: 7.47 µM (active)
IC50 [8]: 16.2 µM (inactive)
IC50 [9]: > 32 µM (inactive)
IC50 (Mu-type opioid receptor): > 32 µM (inactive)

O=C(Cn1cc(C(F)(F)F)cc(Cl)c1=O)NCCc1ccc(Cl)cc1Cl
EC50 (T-cell): 7.63 µM (active)

CC(C)CC[n+]1ccccc1C=Cc1ccc(N(C)C)cc1
IC50 [10]: 6.84 µM (active)
EC50 (BJ [11]): > 150 µM (inconclusive)
AC50 [12]: 1.36 µM (active)
IC50 [13]: > 80 µM (inactive)
EC50 (BJ [14]): 3.6 µM (active)
IC50 [15]: 19.3 µM (active)
EC50 (BJ [16]): 15.5 µM (active)
CC50 [17]: > 40 µM (active)
EC50 [18]: 22.8 µM (inconclusive)
